Results: article PMC7248693, “Synthesis and Biological Evaluation of 2-Substituted Benzyl-/Phenylethylamino-4-amino-5-aroylthiazoles as Apoptosis-Inducing Anticancer Agents” (Molecules, 2020)

How the values were obtained:
U-937 = experiment: Antiproliferative activity, MTT assay, U-937 cells; format: cell-based, human; conditions: for IC50: Homo sapiens, U-937, 72 h, MTT, mean ± SE, at least three independent experiments; for fold more potent than p-methoxy counterpart 8j: antiproliferative activity, cell line not specified (U-937 and SK-MEL-1)
From the text: (§1) In Table 1, we summarize the antiproliferative activity of the 15 novel 2-arylalkylamino-4-amino-5-(3′,4′,5′-trimethoxybenzoyl)thiazole derivatives 8a–o against human leukemia (U-937) and melanoma (SK-MEL-1) tumor cells lines.
(§2) Human U-937 and SK-MEL-1 cell lines were from the German Collection of Microorganisms and Cell Cultures (Braunschweig, Germany; DSMZ No: ACC 5 and ACC 303, respectively). The U-937 is a myeloid leukemia cell line isolated from a histiocytic lymphoma. SK-MEL-1 is a melanoma cell line. Cells were cultured in suspension in RPMI 1640 medium supplemented with 10% (v/v) fetal bovine serum and antibiotics (100 μg mL^−1 streptomycin and 100 U mL^−1 penicillin), at 37 °C in a humidified atmosphere containing 5% CO2. The trypan blue exclusion method was used for counting the cells by a hemocytometer, and cell viability was always greater than 95% in all experiments. Compounds were dissolved in DMSO, and further dilutions were made in culture medium just before use. […] The effects on cell viability of synthetic compounds were determined using a colorimetric assay with the reduction of 3-(4,5-dimethyl-2-thiazolyl-)-2,5-diphenyl-2H-tetrazolium bromide (MTT) as previously described. Briefly, 5 × 10^3 cells were seeded in 96-well microculture plates with increasing concentrations of compounds for 72 h. Then, MTT (0.5 mg mL^−1) was added and incubated for 4 h, and the reaction was stopped with 20% sodium dodecyl sulfate. A570 was used as a measure of cell viability. Concentrations inducing a 50% inhibition of cell growth were determined graphically by nonlinear regression using the curve-fitting algorithm of GraphPad Prism 4.0 (GraphPad Inc La Jolla, CA, USA).

SK-MEL-1 = experiment: Antiproliferative activity, MTT assay, SK-MEL-1 cells; format: cell-based, human; conditions: Homo sapiens, SK-MEL-1; 72 h, MTT; mean ± SE, at least three independent experiments
From the text: as §1, §2

SMILES | melting point | IC50 (U-937) | IC50 (SK-MEL-1) | fold more potent than p-methoxy counterpart 8j (U-937) | increase in potency relative to 8a and 8b (U-937; U-937 cells)
COc1cc(C(=O)c2sc(NCc3ccc(C)cc3)nc2N)cc(OC)c1OC [8h, (4-Amino-2-((4-methylbenzyl)amino)thiazol-5-yl)(3,4,5-trimethoxyphenyl)methanone] | 145 to 147 °C | 15.4 ± 4.9 µM | 19 ± 9.4 µM |  | 
COc1ccc(CNc2nc(N)c(C(=O)c3cc(OC)c(OC)c(OC)c3)s2)cc1OC [8n, (4-Amino-2-((3,4-dimethoxybenzyl)amino)thiazol-5-yl)(3,4,5-trimethoxyphenyl)methanone] | 107 to 111 °C | 28.7 ± 10.5 µM | 32.7 ± 7.7 µM |  | 
COc1cccc(CNc2nc(N)c(C(=O)c3cc(OC)c(OC)c(OC)c3)s2)c1 [8l, (4-Amino-2-((3-methoxybenzyl)amino)thiazol-5-yl)(3,4,5-trimethoxyphenyl)methanone] | 125 to 128 °C | 12.3 ± 6.1 µM | 12.4 ± 4.8 µM | 2 fold | 
COc1ccccc1CNc1nc(N)c(C(=O)c2cc(OC)c(OC)c(OC)c2)s1 [8m, (4-Amino-2-((2-methoxybenzyl)amino)thiazol-5-yl)(3,4,5-trimethoxyphenyl)methanone] |  | 13.6 ± 5.3 µM | 10.4 ± 2.8 µM | 2 fold | 
COc1cc(C(=O)c2sc(NCCCc3ccccc3)nc2N)cc(OC)c1OC [8c, (4-Amino-2-((3-phenylpropyl)amino)thiazol-5-yl)(3,4,5-trimethoxyphenyl)methanone] |  | 10.7 ± 2.8 µM | 16.7 ± 7 µM |  | 2 fold
COc1cc(C(=O)c2sc(NCc3ccc(Br)cc3)nc2N)cc(OC)c1OC [8g, (4-Amino-2-((4-bromobenzyl)amino)thiazol-5-yl)(3,4,5-trimethoxyphenyl)methanone] | 154 to 157 °C | 12.9 ± 3.3 µM | 15.7 ± 4.9 µM |  | 
COc1cc(C(=O)c2sc(NCc3ccccc3)nc2N)cc(OC)c1OC [8a, (4-Amino-2-(benzylamino)thiazol-5-yl)(3,4,5-trimethoxyphenyl)methanone] | 147 to 149 °C | 21.1 ± 5.1 µM | 14.2 ± 9.7 µM |  | 
COc1cc([C@@H]2c3cc4c(cc3[C@@H](O[C@@H]3O[C@@H]5CO[C@@H](C)O[C@H]5[C@H](O)[C@H]3O)[C@H]3COC(=O)[C@H]23)OCO4)cc(OC)c1O [Etoposide, reference compound] |  | 2.1 ± 0.4 µM | 6.3 ± 1 µM |  | 
COc1cc(C(=O)c2sc(NCc3cccc(C)c3)nc2N)cc(OC)c1OC [8i, (4-Amino-2-((3-methylbenzyl)amino)thiazol-5-yl)(3,4,5-trimethoxyphenyl)methanone] | 150 to 152 °C | 18.1 ± 6.4 µM | 16.7 ± 5.6 µM |  | 
